From patent US20230233671A1, “RNA MOLECULES” (Pfizer Inc., priority 2021, published 2023)

What was measured:
VZV gE [1] = assay: Serum VZV gE-binding IgG levels (LUMINEX) in LAV-experienced C57BL/6 mice; type: in vivo; settings: for Day 35 (GMC), serum gE-binding IgG: C57BL/6 mice, LAV SQ Day 0, Day 35 prior to immunization; for Day 63 (GMC), serum gE-binding IgG / Day 76 (GMC), serum gE-binding IgG: LAV-experienced C57BL/6 mice; for Day 63 (GMC), serum gE-binding IgG: Day 63 (1 month post dose 1); for Day 76 (GMC), serum gE-binding IgG: Day 76 (13 days post dose 2/boost)
Experimental: Serum IgG levels were determined for each mouse sample using the LUMINEX® platform. Briefly, diluted sera were incubated in the dark in the presence of blocked, recombinant gE protein-bound single-plex microspheres (MAGPLEX® Microspheres, region 79) for 20±4 hours at 2-8° C., 300 rpm. A secondary antibody solution (R-phycoerythrin Conjugated AffiniPure F(ab)′2 Fragment Goat Anti-Mouse IgG F(ab)′2 Fragment Specific) was prepared at 1:250 in LXA-16 buffer. Plates were washed three times in LXA-20 (EIA-7), and secondary antibody was applied to each well of the assay plate. Plates were covered with aluminum sealers and incubated for 2 hours±15 minutes at 25° C., 300 rpm. Plates were washed three times with LXA-20 (EIA-7) buffer, and 100 ul LXA-20 was applied to each well. Plates were covered with aluminum sealers and incubated at 25° C., 300 rpm for a minimum of 4 minutes, or up to 2 hours. Plates were analyzed on a BIO-PLEX® Reader. IgG titers for Day, 28, 34 and 42 are show in Table 10 and FIGS. 17-19.
(§1) VZV RNA-LNP vaccines were tested for their ability to induce IgG and T cell responses in C57BL/6 mice. 15 mice per group were immunized in accordance with the schedule and specification in Table 11. Briefly, 10 or 15 mice per group were primed subcutaneously (SQ) on Day 0 with a live-attenuated varicella (LAV) vaccine (VARIVAX®, Merck) using a full human dose per mouse (1350 pfu), immunized intramuscularly (IM) on Day 35 day and boosted on Day 63. The “infection” with a LAV vaccine mimics exposure to VZV that humans receive when infected with VZV as children and develop chickenpox.
(§2) Mice immunized with SHINGRIX® received 1, 2.5, or 5 μg, corresponding to 1/50, 1/20, and 1/10 of the human clinical dose, respectively; mice immunized with gE_WT CO2 received 0.5 or 1 μg VZV RNA-LNP; mice immunized with ms5 CO1 received 0.5 or 1 ug VZV RNA-LNP; mice immunized with ms6 CO2 received 0.5 or 1 ug VZV RNA-LNP; and mice immunized with lyophilized gE_WT CO2 received 0.5 or 1 ug VZV RNA-LNP. Saline was administered on Day 35 and 63 to a negative control group. Sera was collected from mice on Day 35, 63 and 76 for characterization of VZV gE-binding IgG levels (LUMINEX® analyses). Spleens were harvested on Day 48 (13 days post dose 1 for selected groups) and Day 76 for cellular analysis (T cell and B cell responses).
Serum IgG levels were determined for each mouse sample using the LUMINEX® platform (described herein). IgG titers for Day 35, 63 (1 month post dose 1) and 76 (13 days pose dose 2) are show in Table 12 and FIGS. 22-24. Each data point in the figures is a result from an individual animal; each horizontal lines represents the geometric mean IgG concentration (μg/ml) and whiskers represent the 95% confidence interval.

VZV gE [2] = assay: ICS assay of gE peptide-stimulated splenocytes from LAV-experienced C57BL/6 mice; type: in vivo; settings: for IFN-γ+ CD4+ T cell: percentage within CD4+ T cells; for IFN-γ+ CD8+ T cell: percentage within CD8+ T cells; for gE-specific IFN-γ+ CD8+ T cell response induced or not: FIG. 26C; for gE-specific IFN-γ+ CD8+ T-cell response, increase after second/boost dose: FIG. 27B
Source text: Splenocytes were harvested from Balb/c mice on Day 34, (34 days after immunization, 6 days after boost) to assess gE-specific T cell responses induced. An Intracellular Cytokine Staining (ICS) assay was used to detect the presence of cytokines within CD4^+ or CD8^+ T cells following antigen peptide stimulation. ICS assay can detect multiple cytokines, including IFN-γ, produced in both CD4^+ and CD8^+ T cells following antigen peptide stimulation. During the ex vivo stimulation of splenocytes, reagents to block protein secretion are added to retain the synthesized cytokine to allow their detection by intracellular staining. Following stimulation, cells are stained for surface and intracellular markers to identify T cell types (CD3^+ cells for CD4 and CD8 T cells), activation markers (CD154/CD40L) and cytokines. CD4^+ T cells expressing IFN-γ, IL-2, TNFα and CD40L, and CD8^+ T cells expressing IFN-γ were assessed to evaluate gE-specific T cells.
2×10^6 splenocytes were stimulated with a 2 μg/mL gE peptide pool mix, a mix of 10 ng/ml phorbol myristate acetate (PMA) and 1 μg/mL ionomycin (positive control), or DMSO (negative control). BD GOLGISTOP™ and BD GOLGIPLUG™ were added to block protein secretion. Following incubation for 6 hours at 37° C., cells were stained for viability (10 min at 25° C.) and extracellular markers with directly labelled antibodies (20 min at 25° C.). Cells were fixed and permeabilized with BD CYTOFIX/CYTOPERM™ solution. Intracellular staining for cytokines (IFN-γ, IL-2, TNFα) and activation markers (CD154/CD40L) was performed in BD CYTOFIX/CYTOPERM™ solution (30 min at 25° C.). Cells were washed, resuspended in 2% FBS/PBS buffer and acquired on an LSRFORTESSA™. Data were analyzed by FlowJo 10.7.1. Results shown are background (media-DMSO) subtracted.
as §1, §2
Vaccine-induced T cell response was measured following ex vivo stimulation of splenocytes with gE peptide pool (2 μg/mL of each peptide) by ELISpot and Intracellular Cytokine Staining (ICS) assay (described herein). For ELISpot, the cytokine IFN-γ secreted by activated T cells were captured by an anti-IFN-γ antibody coated onto the polyvinylidene fluoride (PVDF) membrane of the well bottom on a microplate. The captured IFN-γ was developed into a spot by another non-competing biotinylated anti-IFN-γ secondary antibody followed by an enzymatic color reaction using streptavidin-alkaline phosphatase (ALP) conjugate and the substrate solution, nitro-blue tetrazolium and 5-bromo-4-chloro-3′-indolyphosphate (BCIP/NBT-plus) that yielded a dark purple precipitate or spot. […]

[3] = Day 48 (13 days post dose 1), 1 μg IM Day 35
[4] = Day 76 (13 days post dose 2/boost), 1 μg IM Days 35 and 63
[5] = Day 76 (13 days post dose 2/boost)

ms6 CO2: modRNA construct, ORF SEQ ID NO: 157, VZV gE with deletion of aa 539-623, secreted
Day 35 (GMC), serum gE-binding IgG (VZV gE [1]; 0.5 μg group): 0.28 µg/mL
Day 35 (GMC), serum gE-binding IgG (VZV gE [1]; 1 μg group): 0.19 µg/mL
Day 63 (GMC), serum gE-binding IgG (VZV gE [1]; 0.5 μg IM Day 35): 50 µg/mL
Day 76 (GMC), serum gE-binding IgG (VZV gE [1]; 0.5 μg IM Days 35 and 63): 464 µg/mL
Day 63 (GMC), serum gE-binding IgG (VZV gE [1]; 1 μg IM Day 35): 58 µg/mL
Day 76 (GMC), serum gE-binding IgG (VZV gE [1]; 1 μg IM Days 35 and 63): 723 µg/mL
IFN-γ+ CD4+ T cell (VZV gE [2]; [3]): 0.09%
IFN-γ+ CD8+ T cell (VZV gE [2]; [3]): 0.16%
gE-specific IFN-γ+ CD8+ T cell response induced or not (VZV gE [2]; Day 48 (13 days post dose 1)): induced
IFN-γ+ CD4+ T cell (VZV gE [2]; [4]): 0.50%
IFN-γ+ CD8+ T cell (VZV gE [2]; [4]): 0.21%
gE-specific IFN-γ+ CD8+ T-cell response, increase after second/boost dose (VZV gE [2]; [5]): robust increase

ms5 CO1: modRNA construct, ORF SEQ ID NO: 153, VZV gE with deletion of aa 582-623
Day 35 (GMC), serum gE-binding IgG (VZV gE [1]; 0.5 μg group): 0.11 µg/mL
Day 35 (GMC), serum gE-binding IgG (VZV gE [1]; 1 μg group): 0.14 µg/mL
Day 63 (GMC), serum gE-binding IgG (VZV gE [1]; 0.5 μg IM Day 35): 41 µg/mL
Day 76 (GMC), serum gE-binding IgG (VZV gE [1]; 0.5 μg IM Days 35 and 63): 556 µg/mL
Day 63 (GMC), serum gE-binding IgG (VZV gE [1]; 1 μg IM Day 35): 76 µg/mL
Day 76 (GMC), serum gE-binding IgG (VZV gE [1]; 1 μg IM Days 35 and 63): 530 µg/mL
IFN-γ+ CD4+ T cell (VZV gE [2]; [3]): 0.47%
IFN-γ+ CD8+ T cell (VZV gE [2]; [3]): 0.05%
gE-specific IFN-γ+ CD8+ T cell response induced or not (VZV gE [2]; Day 48 (13 days post dose 1)): induced
IFN-γ+ CD4+ T cell (VZV gE [2]; [4]): 0.48%
IFN-γ+ CD8+ T cell (VZV gE [2]; [4]): 0.28%
gE-specific IFN-γ+ CD8+ T-cell response, increase after second/boost dose (VZV gE [2]; [5]): robust increase
